Data published in ChEMBL document CHEMBL1201862, “PubChem BioAssay data set” (2004).
Activity calls are given as the source filed them.

Assays:
HEK293 [1] = assay: HEK293T cell viability loss, resazurin readout – resazurin fluorescence, cytotoxicity control for NF-kB activator project, SAR follow-up (AID 493251); type: functional, cell-based; conditions: Homo sapiens
[2] = molecular target: T1, Polyadenylate-binding protein 1 (Homo sapiens, UniProt P11940); assay: MLLE binding blockers, Cy5 peptide tracer – biochemical, fluorescence polarization, Cy5-PAM2 peptide, secondary, miRNA deadenylation inhibitor project, dose response (AID 602260); type: functional; conditions: read-out: IC50_Mean
Trypsin = Trypsin (Sus scrofa, UniProt P00761); assay: trypsin protease activity blockade – biochemical, quenched peptide fluorescence, cherry-pick, selectivity assay for Rce1 protease inhibitor project, dose response (AID 488789)
CAAX prenyl protease 2 [3] = molecular target: CAAX prenyl protease 2 (Homo sapiens, UniProt Q9Y256); assay: inhibition of Ras-converting CAAX protease Rce1 – biochemical, yeast membranes, quenched-peptide fluorescence, cherry-pick, dose response (AID 588849)
[4] = molecular target: T1, Polyadenylate-binding protein 1; assay: MLLE domain peptide-binding blockers, IC50 – biochemical, fluorescence polarization, FITC-PAM2 peptide, dose response (AID 602259); type: functional; conditions: read-out: IC50_Mean
CAAX prenyl protease 2 [5] = molecular target: T2, CAAX prenyl protease 2 (Saccharomyces cerevisiae S288c, UniProt Q03530); type: biochemical
T2 sequence (Q03530 whole entry): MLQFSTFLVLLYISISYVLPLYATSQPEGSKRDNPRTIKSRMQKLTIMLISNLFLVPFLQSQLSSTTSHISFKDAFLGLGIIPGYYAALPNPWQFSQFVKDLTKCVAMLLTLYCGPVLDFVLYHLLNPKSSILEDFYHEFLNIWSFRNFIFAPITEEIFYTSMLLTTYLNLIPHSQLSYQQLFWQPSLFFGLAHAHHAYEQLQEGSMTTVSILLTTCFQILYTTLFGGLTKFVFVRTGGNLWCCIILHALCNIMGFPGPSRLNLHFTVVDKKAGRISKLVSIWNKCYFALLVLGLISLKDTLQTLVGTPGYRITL

[6] = molecular target: T3, G-protein coupled receptor 55 (Homo sapiens, UniProt Q9Y2T6); assay: blockers of GPR55 signalling, imaged – imaging, image-based, counter-screen for GPR35 antagonist project, SAR follow-up (AID 2397); type: functional
[7] = molecular target: Beta-2 adrenergic receptor (Homo sapiens, UniProt P07550); assay: ADRB2 activation measured by internalization – cell-based, FAP fluorogen, flow cytometry, cherry pick 1, dose response (AID 588763); type: functional
[8] = viability of PTEN-deleted HCT116 cells – cell-based, HCT116 PTEN knockout, dose response (AID 1047); type: functional;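 note: HCT116 colon tumor cells with PTEN knocked out; cells exposed to compound for 60 hours before readout; potency for loss of cell viability measured by luminescence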
BJ [9] = assay: BJ-TERT fibroblast viability loss – cell-based, RAS-independent, luminescence, dose response (AID 1933); type: functional; conditions: Homo sapiens
[10] = Fluorescence-based cell-based high throughput dose response assay for inhibitors of the interaction of nucleotide-binding oligomerization domain containing 2 (NOD2) and the receptor-interacting serine-threonine kinase 2 (RIPK2).; type: functional; conditions: Homo sapiens
BJ [11] = assay: cells; type: functional, cell-based; conditions: Homo sapiens
[12] = molecular target: C-C chemokine receptor type 6 (Homo sapiens, UniProt P51684); assay: antagonism of CCR6 beta-arrestin recruitment – cell-based, luminescent beta-arrestin readout, dose response (AID 504728); type: functional
BJ [13] = assay: growth inhibition of engineered Ras-driven BJ cells – cell-based, alamar blue fluorescence, cherrypicked samples, dose response (AID 2631); type: functional; conditions: Homo sapiens;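 note: confirmatory dose-response assay in RAS-dependent BJ fibroblasts engineered with TERT, LT and ST, with cytotoxicity read by fluorescence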
Beta Lactamase = Beta Lactamase (Pseudomonas aeruginosa, UniProt Q932Y6); assay: BLA reporter interference, concentration series – BLA reporter cells, FRET fluorescence, artefact control for NOD2-RIPK2 interaction inhibitor project, dose response (AID 651552); type: functional, cell-based
[14] = molecular target: T4, Rac GTPase-activating protein 1 (Homo sapiens, UniProt Q9H0H5); assay: blockers of MgcRacGAP-driven Rac1 GTP hydrolysis – biochemical, ADP Hunter fluorescence, primary and confirmatory, confirmation (AID 624330); type: functional
T4 sequence (Q9H0H5 whole entry): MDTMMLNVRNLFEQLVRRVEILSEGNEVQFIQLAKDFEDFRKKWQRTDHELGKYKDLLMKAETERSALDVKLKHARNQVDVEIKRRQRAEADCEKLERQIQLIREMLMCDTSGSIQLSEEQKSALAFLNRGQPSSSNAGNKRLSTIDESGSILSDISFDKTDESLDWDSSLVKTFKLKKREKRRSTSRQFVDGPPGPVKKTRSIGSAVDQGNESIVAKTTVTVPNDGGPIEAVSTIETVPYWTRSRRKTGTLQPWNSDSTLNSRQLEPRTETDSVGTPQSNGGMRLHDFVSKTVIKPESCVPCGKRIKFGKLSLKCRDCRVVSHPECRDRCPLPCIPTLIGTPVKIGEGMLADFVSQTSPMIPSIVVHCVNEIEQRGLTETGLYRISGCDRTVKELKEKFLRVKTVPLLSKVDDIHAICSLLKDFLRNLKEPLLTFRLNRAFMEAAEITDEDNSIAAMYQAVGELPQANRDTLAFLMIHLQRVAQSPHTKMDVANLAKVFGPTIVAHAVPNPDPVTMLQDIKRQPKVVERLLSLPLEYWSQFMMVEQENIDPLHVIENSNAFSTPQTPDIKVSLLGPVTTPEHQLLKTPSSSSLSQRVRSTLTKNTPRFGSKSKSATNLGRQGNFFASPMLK

Beta-galactosidase = Beta-galactosidase (Escherichia coli, UniProt Q8VNN2); assay: detection-enzyme interference by beta-gal modulators – biochemical, E. coli enzyme, set 3, artefact control for CCR6 antagonist project, dose response (AID 504712); type: functional
[15] = DRD fibroblast viability loss – cell-based, non-viral oncogenic, luminescence, dose response (AID 1934); type: functional; conditions: Homo sapiens
[16] = molecular target: T3, G-protein coupled receptor 55; assay: selective activators of receptor GPR55 – imaging, U2OS cells, beta-arrestin-GFP redistribution, primary screen (AID 1961); type: functional
[17] = viability loss in HeLa cells – cytotoxicity control for MgcRacGAP inhibitor project, dose response (AID 624300); type: functional
[18] = viability of HCT116 lacking mutant beta-catenin – cell-based, human colon tumor, dose response (AID 1045); type: functional;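 note: HCT116 colon tumor cells with beta catenin knocked out; cells exposed to compound for 60 hours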
INS1 = assay: INS-1E survival protection against cytokine death – cell-based, luminescence, retest, dose response (AID 449756); type: functional; conditions: Rattus norvegicus;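 note: cell death triggered by IL-1 beta plus TNF-alpha plus IFN-gamma mixture; protective hits raise ATP signal compared with cytokine alone wells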
[19] = molecular target: T5, Mannose-6-phosphate isomerase (Homo sapiens, UniProt P34949); assay: phosphomannose isomerase inhibition – biochemical, fluorescence intensity, confirmation (AID 1535)
T5 sequence (P34949 whole entry): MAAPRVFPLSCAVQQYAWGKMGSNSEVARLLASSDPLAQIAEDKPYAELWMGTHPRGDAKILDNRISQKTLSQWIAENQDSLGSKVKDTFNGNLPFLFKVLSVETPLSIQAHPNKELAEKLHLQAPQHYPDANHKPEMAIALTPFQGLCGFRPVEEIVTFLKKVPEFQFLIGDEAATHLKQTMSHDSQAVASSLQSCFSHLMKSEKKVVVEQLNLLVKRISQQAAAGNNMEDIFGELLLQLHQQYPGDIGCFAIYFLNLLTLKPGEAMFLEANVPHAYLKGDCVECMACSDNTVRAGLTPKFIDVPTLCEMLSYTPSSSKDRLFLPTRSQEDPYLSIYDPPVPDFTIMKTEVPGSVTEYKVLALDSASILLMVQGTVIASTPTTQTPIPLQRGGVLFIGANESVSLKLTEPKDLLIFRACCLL

HEK293 [20] = assay: cells; conditions: Homo sapiens
Tumor necrosis factor = Tumor necrosis factor (Homo sapiens, UniProt P01375); assay: analog potency on TNFa NF-kB signaling – cell-based, revised, SAR follow-up (AID 2337); type: functional
[21] = molecular target: T6, Nucleotide-binding oligomerization domain-containing protein 1 (Homo sapiens, UniProt Q9Y239); assay: blockers of NOD1 pathway activity – revised, SAR follow-up (AID 2333); type: functional
T6 sequence (Q9Y239 whole entry): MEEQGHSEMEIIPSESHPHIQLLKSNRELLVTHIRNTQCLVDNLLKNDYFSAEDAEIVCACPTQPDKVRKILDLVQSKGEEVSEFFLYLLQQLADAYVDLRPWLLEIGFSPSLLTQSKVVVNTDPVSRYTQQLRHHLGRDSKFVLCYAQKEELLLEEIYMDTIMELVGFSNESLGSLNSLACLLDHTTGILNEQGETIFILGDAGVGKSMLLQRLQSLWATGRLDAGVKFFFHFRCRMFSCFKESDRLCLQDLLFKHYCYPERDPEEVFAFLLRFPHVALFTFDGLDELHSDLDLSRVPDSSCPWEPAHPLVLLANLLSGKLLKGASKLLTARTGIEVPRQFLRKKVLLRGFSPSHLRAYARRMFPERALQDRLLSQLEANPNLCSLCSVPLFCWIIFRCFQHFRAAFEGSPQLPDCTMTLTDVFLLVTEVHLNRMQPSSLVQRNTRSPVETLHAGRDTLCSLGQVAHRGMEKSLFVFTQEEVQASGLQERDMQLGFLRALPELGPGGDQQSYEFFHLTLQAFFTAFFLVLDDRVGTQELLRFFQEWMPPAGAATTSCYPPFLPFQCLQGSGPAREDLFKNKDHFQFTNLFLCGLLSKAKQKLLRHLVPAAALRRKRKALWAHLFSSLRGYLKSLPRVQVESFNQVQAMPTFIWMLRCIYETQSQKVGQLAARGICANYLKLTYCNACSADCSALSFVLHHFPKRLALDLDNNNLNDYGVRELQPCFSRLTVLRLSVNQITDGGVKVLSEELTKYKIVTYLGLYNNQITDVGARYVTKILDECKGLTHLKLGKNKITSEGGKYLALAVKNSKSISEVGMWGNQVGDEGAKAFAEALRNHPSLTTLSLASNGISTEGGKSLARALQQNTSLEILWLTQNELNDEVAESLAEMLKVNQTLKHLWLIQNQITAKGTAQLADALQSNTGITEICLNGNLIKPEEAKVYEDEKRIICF

T3 sequence (Q9Y2T6 whole entry): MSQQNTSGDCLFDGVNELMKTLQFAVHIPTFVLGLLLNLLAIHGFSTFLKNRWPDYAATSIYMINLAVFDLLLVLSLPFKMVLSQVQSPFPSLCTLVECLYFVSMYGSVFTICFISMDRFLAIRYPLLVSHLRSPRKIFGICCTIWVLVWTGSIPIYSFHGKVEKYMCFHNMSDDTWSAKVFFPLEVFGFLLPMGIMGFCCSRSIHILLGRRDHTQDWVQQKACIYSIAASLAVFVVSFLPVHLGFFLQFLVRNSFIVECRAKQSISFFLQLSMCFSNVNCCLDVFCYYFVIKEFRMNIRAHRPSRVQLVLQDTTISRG
Chain of Tumor necrosis factor (P01375 whole entry, the tested form may be a part): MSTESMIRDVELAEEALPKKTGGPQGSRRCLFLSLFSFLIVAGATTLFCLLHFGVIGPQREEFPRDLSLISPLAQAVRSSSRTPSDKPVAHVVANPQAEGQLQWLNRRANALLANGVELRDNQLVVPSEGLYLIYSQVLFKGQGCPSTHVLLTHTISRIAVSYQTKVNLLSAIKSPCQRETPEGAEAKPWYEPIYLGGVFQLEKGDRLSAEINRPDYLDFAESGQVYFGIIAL
T1 sequence (P11940 whole entry): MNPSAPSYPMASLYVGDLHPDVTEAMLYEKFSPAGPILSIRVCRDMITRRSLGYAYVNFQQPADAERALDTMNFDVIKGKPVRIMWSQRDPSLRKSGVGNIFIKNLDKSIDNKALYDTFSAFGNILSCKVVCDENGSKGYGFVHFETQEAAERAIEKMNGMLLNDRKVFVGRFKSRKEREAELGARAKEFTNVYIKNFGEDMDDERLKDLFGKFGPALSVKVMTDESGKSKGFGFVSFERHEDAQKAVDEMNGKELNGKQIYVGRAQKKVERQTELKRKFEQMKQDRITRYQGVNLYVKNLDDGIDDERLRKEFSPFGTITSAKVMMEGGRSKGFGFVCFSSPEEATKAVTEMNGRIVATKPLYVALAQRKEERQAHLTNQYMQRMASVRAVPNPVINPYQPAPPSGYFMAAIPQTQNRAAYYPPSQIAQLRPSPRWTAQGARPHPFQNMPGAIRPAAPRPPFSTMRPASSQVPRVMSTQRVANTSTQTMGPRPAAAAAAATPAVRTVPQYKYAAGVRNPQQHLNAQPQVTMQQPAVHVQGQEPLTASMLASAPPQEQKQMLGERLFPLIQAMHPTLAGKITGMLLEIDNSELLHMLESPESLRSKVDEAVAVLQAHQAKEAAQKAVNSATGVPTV
Chain of Beta Lactamase (Q932Y6 whole entry): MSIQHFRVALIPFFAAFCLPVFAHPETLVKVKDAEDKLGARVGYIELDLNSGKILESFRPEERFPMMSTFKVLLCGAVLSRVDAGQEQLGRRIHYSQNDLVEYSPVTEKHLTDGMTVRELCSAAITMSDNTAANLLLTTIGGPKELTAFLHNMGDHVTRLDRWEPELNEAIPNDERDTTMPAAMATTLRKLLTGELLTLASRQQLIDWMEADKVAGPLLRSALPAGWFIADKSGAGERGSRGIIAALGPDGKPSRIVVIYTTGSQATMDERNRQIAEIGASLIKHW
Chain of Trypsin (P00761 whole entry): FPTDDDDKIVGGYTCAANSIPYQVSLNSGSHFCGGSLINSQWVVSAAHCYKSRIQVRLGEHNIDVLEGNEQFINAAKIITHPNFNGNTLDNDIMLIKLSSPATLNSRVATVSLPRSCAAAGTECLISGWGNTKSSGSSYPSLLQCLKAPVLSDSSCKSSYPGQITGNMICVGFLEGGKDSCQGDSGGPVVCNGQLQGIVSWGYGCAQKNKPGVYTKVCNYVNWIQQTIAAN
Chain of CAAX prenyl protease 2 (Homo sapiens, UniProt Q9Y256) (Q9Y256 whole entry, the tested form may be a part): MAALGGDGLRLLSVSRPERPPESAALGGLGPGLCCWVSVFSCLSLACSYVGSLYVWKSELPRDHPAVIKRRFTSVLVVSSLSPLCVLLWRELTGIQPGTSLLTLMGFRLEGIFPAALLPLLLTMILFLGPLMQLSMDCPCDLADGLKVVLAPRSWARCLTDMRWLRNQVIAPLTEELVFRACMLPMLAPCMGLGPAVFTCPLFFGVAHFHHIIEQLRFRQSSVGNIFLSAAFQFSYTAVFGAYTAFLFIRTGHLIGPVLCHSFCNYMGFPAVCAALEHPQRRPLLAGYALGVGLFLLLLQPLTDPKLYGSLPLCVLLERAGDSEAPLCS
Chain of Beta-galactosidase (Q8VNN2 whole entry): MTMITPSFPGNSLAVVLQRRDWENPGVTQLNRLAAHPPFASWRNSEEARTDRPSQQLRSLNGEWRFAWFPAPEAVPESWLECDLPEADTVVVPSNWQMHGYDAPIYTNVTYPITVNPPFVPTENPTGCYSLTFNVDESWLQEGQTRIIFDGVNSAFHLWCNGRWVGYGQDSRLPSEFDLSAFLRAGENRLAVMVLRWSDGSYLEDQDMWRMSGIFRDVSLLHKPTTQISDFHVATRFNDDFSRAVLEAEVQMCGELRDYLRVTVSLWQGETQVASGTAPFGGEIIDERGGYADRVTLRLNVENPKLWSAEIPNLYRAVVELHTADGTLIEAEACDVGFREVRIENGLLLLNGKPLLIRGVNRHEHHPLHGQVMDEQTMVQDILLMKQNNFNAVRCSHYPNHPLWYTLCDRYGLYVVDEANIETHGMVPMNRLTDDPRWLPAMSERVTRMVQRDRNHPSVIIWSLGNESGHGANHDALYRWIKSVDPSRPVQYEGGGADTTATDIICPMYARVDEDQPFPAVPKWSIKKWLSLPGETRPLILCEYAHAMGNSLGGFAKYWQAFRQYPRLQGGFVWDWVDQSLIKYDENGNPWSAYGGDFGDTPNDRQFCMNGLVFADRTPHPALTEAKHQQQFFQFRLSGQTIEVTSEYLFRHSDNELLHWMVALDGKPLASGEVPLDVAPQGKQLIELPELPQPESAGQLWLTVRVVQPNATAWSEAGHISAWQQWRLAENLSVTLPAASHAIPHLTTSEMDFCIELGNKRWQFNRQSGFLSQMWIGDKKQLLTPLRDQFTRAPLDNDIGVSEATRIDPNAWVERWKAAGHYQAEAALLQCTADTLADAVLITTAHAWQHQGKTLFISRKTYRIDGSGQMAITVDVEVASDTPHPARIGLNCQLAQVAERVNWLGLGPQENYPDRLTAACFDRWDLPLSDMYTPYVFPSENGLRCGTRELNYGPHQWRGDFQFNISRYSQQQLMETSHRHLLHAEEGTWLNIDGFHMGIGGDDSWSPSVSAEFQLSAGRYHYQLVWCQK
Chain of C-C chemokine receptor type 6 (P51684 whole entry): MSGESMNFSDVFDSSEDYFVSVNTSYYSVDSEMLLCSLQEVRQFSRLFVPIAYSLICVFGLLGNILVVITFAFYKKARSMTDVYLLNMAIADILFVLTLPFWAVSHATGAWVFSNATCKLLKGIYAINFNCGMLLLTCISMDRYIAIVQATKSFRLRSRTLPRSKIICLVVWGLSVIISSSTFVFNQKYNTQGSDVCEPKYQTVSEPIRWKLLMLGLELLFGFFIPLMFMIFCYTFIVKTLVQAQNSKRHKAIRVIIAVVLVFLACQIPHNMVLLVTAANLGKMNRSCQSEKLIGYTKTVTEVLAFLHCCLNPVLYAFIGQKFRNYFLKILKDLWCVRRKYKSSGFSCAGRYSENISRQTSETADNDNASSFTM
Chain of Beta-2 adrenergic receptor (P07550 whole entry): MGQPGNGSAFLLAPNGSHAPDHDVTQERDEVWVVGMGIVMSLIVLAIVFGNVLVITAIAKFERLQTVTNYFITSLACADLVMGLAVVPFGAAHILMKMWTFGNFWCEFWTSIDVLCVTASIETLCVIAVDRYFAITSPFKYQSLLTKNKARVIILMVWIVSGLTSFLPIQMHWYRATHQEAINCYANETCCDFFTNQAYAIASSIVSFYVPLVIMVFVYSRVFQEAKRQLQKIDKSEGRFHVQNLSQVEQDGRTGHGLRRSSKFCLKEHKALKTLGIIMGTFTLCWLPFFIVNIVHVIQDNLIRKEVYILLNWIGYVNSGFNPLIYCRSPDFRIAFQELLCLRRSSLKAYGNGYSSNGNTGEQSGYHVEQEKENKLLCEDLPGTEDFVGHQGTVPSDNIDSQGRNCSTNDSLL

O=C(O)CCc1nc(-c2ccccc2)no1
IC50 (HEK293 [1]): > 80 µM (inactive)

COC(=O)Nc1nnc(-c2ccncc2)s1
IC50 [2]: > 66 µM (inactive)
AC50 (Trypsin): 12.5 µM (active)
AC50 (CAAX prenyl protease 2 [3]): 5.84 µM (active)
IC50 [4]: > 66 µM (inactive)
AC50 (CAAX prenyl protease 2 [5]): 9.58 µM (active)

COC(=O)CSc1nc2ccc(NC(=O)c3ccccc3C(=O)N3CCOCC3)cc2s1
IC50 [6]: > 32 µM (inactive)

CCCCN(CCCC)c1nc2ccccc2nc1NS(=O)(=O)c1ccc(NC(C)=O)cc1
EC50 [7]: 0.0203 µM (active)

COC(=O)c1ccc2c(c1)C(C)(C)C(/C=C/c1ccc(OC)c(OC)c1OC)=[N+]2C
EC50 [8]: 5.04 µM (active)
EC50 (BJ [9]): 3.9 µM (inconclusive)
IC50 [10]: 1.93 µM (active)
EC50 (BJ [11]): 14.4 µM (active)
IC50 [12]: 21.4 µM (inactive)
EC50 (BJ [13]): 1.3 µM (inconclusive)
IC50 (Beta Lactamase): 39.1 µM (inactive)
IC50 [14]: 25.7 µM (active)
IC50 (Beta-galactosidase): > 66.6 µM (inactive)
EC50 [15]: 3.71 µM (active)
EC50 [16]: 1.51 µM (active)
CC50 [17]: 60.4 µM (active)
EC50 [18]: 3.84 µM (active)
AC50 (INS1): 2.09 µM (active)

Clc1nss/c1=N\c1nc2ccccc2[nH]1
IC50 [19]: 98.1 µM (active)

CCc1cc(C(=O)NC2CCCc3c2cnn3-c2ccc(F)cc2F)no1 (stereo not given)
IC50 (HEK293 [20]): > 20 µM (inactive)
IC50 (Tumor necrosis factor): > 20 µM (inactive)
IC50 [21]: 10.4 µM (active)

CCOC(=O)c1ccc(NC(=O)c2ccc(CCN3CCc4ccccc4C3)cc2)cc1
IC50 (HEK293 [20]): > 20 µM (inactive)
IC50 (Tumor necrosis factor): 10.8 µM (active)
IC50 [21]: 10.6 µM (active)

c1ccc(Cn2ncc3c(N4CCN(c5ccccc5)CC4)ncnc32)cc1
IC50 [6]: 29.1 µM (inactive)
